Measured values published in ChEMBL document CHEMBL3132769, “Fragment growing to retain or alter the selectivity of anchored kinase hinge-binding fragments” (Medchemcomm, 2014).

Key:
[1] = biological target: Protein kinase C eta type (Homo sapiens) (UniProt P24723); assay: Inhibition of human truncated PKC eta expressed in baculovirus assessed as substrate phosphorylation using fluorescence-labelled peptides as substrate at 0.06 uM after 90 mins by microfluidic peptide phosphorylation assay
[2] = biological target: Mitogen-activated protein kinase kinase kinase kinase 4 (Homo sapiens) (UniProt O95819); assay: Inhibition of human HGK catalytic domain expressed in baculovirus assessed as substrate phosphorylation using fluorescence-labelled peptides as substrate at 0.06 uM after 90 mins by microfluidic peptide phosphorylation assay
Sequence of Mitogen-activated protein kinase kinase kinase kinase 4 (Homo sapiens) (O95819 2-1239 limits assumed): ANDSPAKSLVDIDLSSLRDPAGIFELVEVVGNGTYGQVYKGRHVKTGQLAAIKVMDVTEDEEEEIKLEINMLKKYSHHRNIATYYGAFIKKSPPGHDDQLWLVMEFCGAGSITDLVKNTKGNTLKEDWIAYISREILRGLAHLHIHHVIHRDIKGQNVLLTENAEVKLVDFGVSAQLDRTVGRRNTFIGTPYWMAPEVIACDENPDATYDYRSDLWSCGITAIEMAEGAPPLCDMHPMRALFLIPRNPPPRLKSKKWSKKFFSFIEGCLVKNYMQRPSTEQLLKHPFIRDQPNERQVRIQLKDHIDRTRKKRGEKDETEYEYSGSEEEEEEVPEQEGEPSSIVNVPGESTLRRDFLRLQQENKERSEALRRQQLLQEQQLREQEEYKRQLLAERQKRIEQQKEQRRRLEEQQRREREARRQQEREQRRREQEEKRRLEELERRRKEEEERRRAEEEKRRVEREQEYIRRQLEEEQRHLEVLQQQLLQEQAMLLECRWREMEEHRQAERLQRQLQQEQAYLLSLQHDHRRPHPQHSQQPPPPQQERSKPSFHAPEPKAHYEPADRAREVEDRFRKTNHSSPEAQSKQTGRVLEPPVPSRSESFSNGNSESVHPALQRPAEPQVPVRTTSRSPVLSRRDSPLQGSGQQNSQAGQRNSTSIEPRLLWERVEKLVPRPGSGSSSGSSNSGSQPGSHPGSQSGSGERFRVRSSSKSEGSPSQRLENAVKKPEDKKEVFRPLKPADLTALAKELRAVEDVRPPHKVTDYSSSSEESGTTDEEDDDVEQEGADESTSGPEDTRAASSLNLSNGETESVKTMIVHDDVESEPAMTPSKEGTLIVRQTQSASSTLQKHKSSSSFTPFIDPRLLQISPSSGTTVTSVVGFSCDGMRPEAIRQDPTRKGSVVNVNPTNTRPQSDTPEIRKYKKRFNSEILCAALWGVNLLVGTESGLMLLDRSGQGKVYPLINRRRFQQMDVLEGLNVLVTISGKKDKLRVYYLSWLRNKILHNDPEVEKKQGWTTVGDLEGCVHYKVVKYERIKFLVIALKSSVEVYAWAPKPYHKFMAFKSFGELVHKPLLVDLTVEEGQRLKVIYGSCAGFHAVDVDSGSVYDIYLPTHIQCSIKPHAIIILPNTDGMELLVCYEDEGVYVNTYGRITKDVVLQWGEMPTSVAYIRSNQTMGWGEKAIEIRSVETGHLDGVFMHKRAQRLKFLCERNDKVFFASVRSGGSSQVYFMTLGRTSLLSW

[3] = species on record: Homo sapiens; assay: Inhibition of human full length PKA expressed in baculovirus assessed as substrate phosphorylation using fluorescence-labelled peptides as substrate at 0.2 uM after 90 mins by microfluidic peptide phosphorylation assay
[4] = biological target: Mitogen-activated protein kinase 14 (Homo sapiens) (UniProt Q16539); assay: Inhibition of human truncated p38 alpha expressed in Escherichia coli cell assessed as substrate phosphorylation using fluorescence-labelled peptides as substrate at 0.2 uM after 90 mins by microfluidic peptide phosphorylation assay
Sequence of Mitogen-activated protein kinase 14 (Homo sapiens) (Q16539 whole entry, the tested form may be a part): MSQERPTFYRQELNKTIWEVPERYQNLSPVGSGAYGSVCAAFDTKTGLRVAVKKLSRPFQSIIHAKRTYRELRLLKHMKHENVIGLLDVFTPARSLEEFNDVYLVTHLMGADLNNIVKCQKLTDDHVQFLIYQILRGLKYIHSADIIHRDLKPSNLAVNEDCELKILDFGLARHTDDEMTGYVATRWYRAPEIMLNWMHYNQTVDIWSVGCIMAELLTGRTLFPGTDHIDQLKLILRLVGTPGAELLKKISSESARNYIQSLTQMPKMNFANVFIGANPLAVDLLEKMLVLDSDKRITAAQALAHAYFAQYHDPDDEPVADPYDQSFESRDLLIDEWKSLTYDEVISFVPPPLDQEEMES

[5] = biological target: MAP/microtubule affinity-regulating kinase 3 (Homo sapiens) (UniProt P27448); assay: Inhibition of human full length c-TAK1 expressed in Escherichia coli cell assessed as substrate phosphorylation using fluorescence-labelled peptides as substrate at 0.1 uM after 90 mins by microfluidic peptide phosphorylation assay
Sequence of MAP/microtubule affinity-regulating kinase 3 (Homo sapiens) (P27448 whole entry, looked up, the tested form may be a part): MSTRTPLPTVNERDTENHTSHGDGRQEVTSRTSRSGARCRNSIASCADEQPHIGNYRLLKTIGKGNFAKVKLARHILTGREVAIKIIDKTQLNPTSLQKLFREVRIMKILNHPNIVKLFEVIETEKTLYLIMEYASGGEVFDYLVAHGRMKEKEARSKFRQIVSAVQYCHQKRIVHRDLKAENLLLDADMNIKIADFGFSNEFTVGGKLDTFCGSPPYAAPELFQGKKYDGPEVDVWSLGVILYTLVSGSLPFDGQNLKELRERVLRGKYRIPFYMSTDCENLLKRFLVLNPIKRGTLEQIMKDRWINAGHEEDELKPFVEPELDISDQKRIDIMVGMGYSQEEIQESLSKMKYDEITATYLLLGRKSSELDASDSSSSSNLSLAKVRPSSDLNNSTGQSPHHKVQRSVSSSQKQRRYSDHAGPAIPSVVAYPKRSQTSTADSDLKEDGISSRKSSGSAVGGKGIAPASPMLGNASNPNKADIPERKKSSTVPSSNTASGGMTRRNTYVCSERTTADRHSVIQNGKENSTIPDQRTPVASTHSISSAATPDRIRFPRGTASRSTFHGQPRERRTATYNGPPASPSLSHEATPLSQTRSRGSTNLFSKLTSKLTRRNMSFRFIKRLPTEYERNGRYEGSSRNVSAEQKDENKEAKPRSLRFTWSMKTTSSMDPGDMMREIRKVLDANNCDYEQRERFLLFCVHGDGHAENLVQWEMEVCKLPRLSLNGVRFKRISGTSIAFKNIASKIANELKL

[6] = biological target: T1, Serine/threonine-protein kinase BRSK2 (Homo sapiens) (UniProt Q8IWQ3); assay: Inhibition of human truncated BRSK2 expressed in baculovirus assessed as substrate phosphorylation using fluorescence-labelled peptides as substrate at 9 uM after 90 mins by microfluidic peptide phosphorylation assay
T1 sequence (whole entry): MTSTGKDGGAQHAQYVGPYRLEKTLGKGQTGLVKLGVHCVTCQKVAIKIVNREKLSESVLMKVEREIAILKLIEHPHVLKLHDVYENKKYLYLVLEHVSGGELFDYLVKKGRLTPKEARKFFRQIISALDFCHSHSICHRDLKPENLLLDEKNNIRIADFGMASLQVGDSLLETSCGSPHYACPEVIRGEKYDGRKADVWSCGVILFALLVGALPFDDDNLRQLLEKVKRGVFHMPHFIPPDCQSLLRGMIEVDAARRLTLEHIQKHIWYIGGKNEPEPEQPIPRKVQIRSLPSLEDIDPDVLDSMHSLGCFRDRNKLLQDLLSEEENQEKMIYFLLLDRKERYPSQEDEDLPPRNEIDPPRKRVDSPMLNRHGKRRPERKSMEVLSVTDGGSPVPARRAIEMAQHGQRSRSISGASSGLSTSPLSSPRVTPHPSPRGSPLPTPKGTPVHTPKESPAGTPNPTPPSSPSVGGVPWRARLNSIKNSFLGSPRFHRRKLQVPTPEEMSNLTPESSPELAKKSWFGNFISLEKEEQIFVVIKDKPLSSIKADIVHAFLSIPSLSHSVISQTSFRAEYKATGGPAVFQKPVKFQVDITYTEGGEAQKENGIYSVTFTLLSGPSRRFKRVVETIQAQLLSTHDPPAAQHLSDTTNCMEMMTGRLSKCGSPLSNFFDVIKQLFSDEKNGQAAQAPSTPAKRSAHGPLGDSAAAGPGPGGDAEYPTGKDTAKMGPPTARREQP

[7] = biological target: Serine/threonine-protein kinase MARK1 (Homo sapiens) (UniProt Q9P0L2); assay: Inhibition of human full length MARK1 expressed in baculovirus assessed as substrate phosphorylation using fluorescence-labelled peptides as substrate at 9 uM after 90 mins by microfluidic peptide phosphorylation assay
[8] = biological target: MAP/microtubule affinity-regulating kinase 3 (Homo sapiens) (UniProt P27448); assay: Inhibition of human full length c-TAK1 expressed in Escherichia coli cell assessed as substrate phosphorylation using fluorescence-labelled peptides as substrate at 70 uM after 90 mins by microfluidic peptide phosphorylation assay
[9] = biological target: Calcium/calmodulin-dependent protein kinase type II subunit delta (Homo sapiens) (UniProt Q13557); assay: Inhibition of human full length CAMK2D expressed in baculovirus assessed as substrate phosphorylation using fluorescence-labelled peptides as substrate at 70 uM after 90 mins by microfluidic peptide phosphorylation assay
[10] = biological target: Tyrosine-protein kinase HCK (Homo sapiens) (UniProt P08631); assay: Inhibition of human HCK catalytic domain expressed in baculovirus assessed as substrate phosphorylation using fluorescence-labelled peptides as substrate at 95 uM after 90 mins by microfluidic peptide phosphorylation assay
Sequence of Tyrosine-protein kinase HCK (Homo sapiens) (P08631 2-526 limits assumed): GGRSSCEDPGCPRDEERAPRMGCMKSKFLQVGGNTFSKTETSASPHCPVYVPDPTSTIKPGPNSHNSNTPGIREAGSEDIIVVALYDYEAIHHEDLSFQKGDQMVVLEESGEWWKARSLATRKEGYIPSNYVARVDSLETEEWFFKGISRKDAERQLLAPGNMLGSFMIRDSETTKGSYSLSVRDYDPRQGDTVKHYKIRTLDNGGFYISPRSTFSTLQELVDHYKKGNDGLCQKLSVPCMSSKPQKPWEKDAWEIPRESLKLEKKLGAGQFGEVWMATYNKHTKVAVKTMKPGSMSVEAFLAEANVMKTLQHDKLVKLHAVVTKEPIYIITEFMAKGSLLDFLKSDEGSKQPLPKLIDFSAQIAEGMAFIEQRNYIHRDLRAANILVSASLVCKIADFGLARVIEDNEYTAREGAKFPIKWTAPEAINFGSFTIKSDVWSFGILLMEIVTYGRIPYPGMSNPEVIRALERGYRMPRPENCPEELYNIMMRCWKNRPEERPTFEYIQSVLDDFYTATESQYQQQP

[11] = biological target: Aurora kinase B (Homo sapiens) (UniProt Q96GD4); assay: Inhibition of human full length AurB expressed in baculovirus assessed as substrate phosphorylation using fluorescence-labelled peptides as substrate at 8 uM after 90 mins by microfluidic peptide phosphorylation assay
[12] = biological target: Rho-associated protein kinase 2 (Homo sapiens) (UniProt O75116); assay: Inhibition of human ROCK2 catalytic domain expressed in baculovirus assessed as substrate phosphorylation using fluorescence-labelled peptides as substrate at 1000 uM after 90 mins by microfluidic peptide phosphorylation assay
Sequence of Rho-associated protein kinase 2 (Homo sapiens) (O75116 whole entry, looked up, the tested form may be a part): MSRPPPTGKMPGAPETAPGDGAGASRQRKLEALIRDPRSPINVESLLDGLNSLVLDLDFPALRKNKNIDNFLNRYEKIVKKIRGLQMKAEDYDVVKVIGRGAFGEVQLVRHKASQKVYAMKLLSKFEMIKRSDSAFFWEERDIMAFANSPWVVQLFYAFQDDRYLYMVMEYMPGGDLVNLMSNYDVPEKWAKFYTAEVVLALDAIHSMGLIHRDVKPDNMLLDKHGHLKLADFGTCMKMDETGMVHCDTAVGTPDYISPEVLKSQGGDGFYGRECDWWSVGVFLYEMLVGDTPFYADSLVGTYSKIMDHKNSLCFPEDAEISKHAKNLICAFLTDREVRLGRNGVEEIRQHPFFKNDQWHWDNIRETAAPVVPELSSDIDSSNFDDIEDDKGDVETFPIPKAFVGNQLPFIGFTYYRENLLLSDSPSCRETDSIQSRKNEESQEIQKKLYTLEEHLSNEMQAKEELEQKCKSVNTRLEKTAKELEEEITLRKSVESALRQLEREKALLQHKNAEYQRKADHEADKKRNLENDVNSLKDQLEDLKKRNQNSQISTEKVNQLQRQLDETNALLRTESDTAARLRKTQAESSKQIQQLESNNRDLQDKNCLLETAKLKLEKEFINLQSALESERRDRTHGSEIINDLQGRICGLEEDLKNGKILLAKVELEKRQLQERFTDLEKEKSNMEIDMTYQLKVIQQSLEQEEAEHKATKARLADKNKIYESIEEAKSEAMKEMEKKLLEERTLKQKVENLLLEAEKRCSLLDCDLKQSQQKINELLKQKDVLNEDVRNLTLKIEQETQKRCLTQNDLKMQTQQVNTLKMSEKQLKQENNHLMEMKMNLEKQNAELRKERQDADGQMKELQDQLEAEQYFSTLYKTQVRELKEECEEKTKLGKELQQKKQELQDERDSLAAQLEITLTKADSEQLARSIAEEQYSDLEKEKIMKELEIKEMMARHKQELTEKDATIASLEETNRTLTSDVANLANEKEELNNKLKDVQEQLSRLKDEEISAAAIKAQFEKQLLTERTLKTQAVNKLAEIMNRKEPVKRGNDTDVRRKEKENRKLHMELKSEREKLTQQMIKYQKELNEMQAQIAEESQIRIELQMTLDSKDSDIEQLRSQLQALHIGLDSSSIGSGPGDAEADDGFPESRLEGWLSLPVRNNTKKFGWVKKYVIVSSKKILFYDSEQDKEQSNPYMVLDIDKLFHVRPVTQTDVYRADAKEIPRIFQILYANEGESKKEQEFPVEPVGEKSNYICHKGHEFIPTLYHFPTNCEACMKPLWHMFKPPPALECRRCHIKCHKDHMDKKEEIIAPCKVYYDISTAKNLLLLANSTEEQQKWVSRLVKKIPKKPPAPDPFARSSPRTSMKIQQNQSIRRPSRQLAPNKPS

[13] = biological target: T2, Protein kinase C zeta type (Homo sapiens) (UniProt Q05513); assay: Inhibition of human full length PKC zeta expressed in baculovirus assessed as substrate phosphorylation using fluorescence-labelled peptides as substrate at 1000 uM after 90 mins by microfluidic peptide phosphorylation assay
T2 sequence (whole entry): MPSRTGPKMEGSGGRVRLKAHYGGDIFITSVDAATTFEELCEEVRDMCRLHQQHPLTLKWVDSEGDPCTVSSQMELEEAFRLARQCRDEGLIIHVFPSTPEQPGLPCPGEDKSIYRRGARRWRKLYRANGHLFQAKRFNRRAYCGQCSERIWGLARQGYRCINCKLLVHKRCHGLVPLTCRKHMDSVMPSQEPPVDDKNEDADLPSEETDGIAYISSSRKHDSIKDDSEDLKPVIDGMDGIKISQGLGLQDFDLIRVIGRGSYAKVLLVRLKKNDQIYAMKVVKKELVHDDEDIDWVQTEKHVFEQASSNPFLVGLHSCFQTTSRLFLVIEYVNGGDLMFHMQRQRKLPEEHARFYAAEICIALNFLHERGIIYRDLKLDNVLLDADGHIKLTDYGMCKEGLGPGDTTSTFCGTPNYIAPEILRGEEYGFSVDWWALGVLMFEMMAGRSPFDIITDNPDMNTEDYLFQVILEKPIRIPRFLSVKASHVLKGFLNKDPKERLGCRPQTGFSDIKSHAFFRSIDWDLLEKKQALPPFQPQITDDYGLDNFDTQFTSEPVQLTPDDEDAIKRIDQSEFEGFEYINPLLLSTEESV

[14] = biological target: Tyrosine-protein kinase Fyn (Homo sapiens) (UniProt P06241); assay: Inhibition of human full length FYN expressed in baculovirus assessed as substrate phosphorylation using fluorescence-labelled peptides as substrate at 2 uM after 90 mins by microfluidic peptide phosphorylation assay

Sequence of Protein kinase C eta type (Homo sapiens) (P24723 whole entry, the tested form may be a part): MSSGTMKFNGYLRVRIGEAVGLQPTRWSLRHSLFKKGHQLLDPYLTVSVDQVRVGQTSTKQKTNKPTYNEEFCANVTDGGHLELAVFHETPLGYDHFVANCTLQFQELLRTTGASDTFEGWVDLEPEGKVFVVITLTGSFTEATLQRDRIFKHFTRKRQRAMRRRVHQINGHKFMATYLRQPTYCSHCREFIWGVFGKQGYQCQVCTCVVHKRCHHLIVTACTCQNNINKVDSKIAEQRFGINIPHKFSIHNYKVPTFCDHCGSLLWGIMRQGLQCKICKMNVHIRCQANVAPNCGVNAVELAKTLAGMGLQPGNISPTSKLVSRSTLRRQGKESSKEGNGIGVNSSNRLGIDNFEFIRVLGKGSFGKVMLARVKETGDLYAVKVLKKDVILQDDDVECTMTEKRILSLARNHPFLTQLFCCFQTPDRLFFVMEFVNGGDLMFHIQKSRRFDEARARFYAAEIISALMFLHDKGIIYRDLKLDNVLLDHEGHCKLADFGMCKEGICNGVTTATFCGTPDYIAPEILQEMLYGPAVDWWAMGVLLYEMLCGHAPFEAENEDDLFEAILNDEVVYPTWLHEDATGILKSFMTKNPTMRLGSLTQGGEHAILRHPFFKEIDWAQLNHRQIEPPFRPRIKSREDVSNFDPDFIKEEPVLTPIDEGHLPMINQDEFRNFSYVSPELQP

NC1(Cc2ccc(Cl)cc2)CCN(c2ncnc3[nH]ccc23)CC1
inhibition [1]: 51% | inhibition [2]: 1%

Clc1ccc(C2(c3ccc(-c4ncnc5[nH]cnc45)cc3)CCNCC2)cc1
inhibition [3]: 100% | inhibition [4]: 5%

C[C@H](CN(C)C)Oc1nc(Nc2cc3cccc(Cl)c3cn2)cnc1C#N
inhibition [5]: 6%

NCC1CN(c2ncnc3[nH]c4cnccc4c23)CCO1 (centres undefined)
inhibition [6]: 36% | inhibition [7]: 2%

CNCc1ccc(-c2ncnc3[nH]cnc23)cc1
inhibition [8]: 6.5% | inhibition [9]: 17.5%

NCCc1ccc(-c2ncnc3[nH]cnc23)cc1
inhibition [10]: 48.5%

NCC1CCN(c2ncnc3[nH]ccc23)CC1
inhibition [11]: 76%

c1cnc2[nH]ccc2c1
inhibition [12]: 99.5% | inhibition [13]: 31.5%

NC1CCN(c2ncnc3[nH]ccc23)CC1
inhibition [14]: 5%
